# Assay results published in patent US9617281B2, “Imidazo[2,1-b]thiazole derivatives, their preparation and use as medicaments” (LABORATORIOS DEL DR. ESTEVE S.A., priority 2012, dated 2017).
# Counter-ions that a name gives are not always drawn.
# Target: σ1-receptor (Cavia porcellus (Guinea pig), UniProt Q60492)
# Test: σ1-receptor binding assay with [3H]-(+)-pentazocine in guinea pig brain membranes
# Conditions: radioligand [3H]-(+)-pentazocine 5.0 nM, 150 min at 37° C.
# Protocol: Brain membrane preparation and binding assays for the σ1-receptor were performed as described (DeHaven-Hudkins, D. L., L. C. Fleissner, and F. Y. Ford-Rice, 1992, Characterization of the binding of [^3H](+)pentazocine to a recognition sites in guinea pig brain, Eur. J. Pharmacol. 227, 371-378) with some modifications. Guinea pig brains were homogenized in 10 vols. (w/v) of Tris-HCl 50 mM 0.32 M sucrose, pH 7.4, with a Kinematica Polytron PT 3000 at 15000 r.p.m. for 30 s. The homogenate was centrifuged at 1000 g for 10 min at 4° C. and the supernatants collected and centrifuged again at 48000 g for 15 min at 4° C. The pellet was resuspended in 10 volumes of Tris-HCl buffer (50 mM, pH 7.4), incubated at 37° C. for 30 min, and centrifuged at 48000 g for 20 min at 4° C. Following this, the pellet was re-suspended in fresh Tris-HCl buffer (50 mM, pH 7.4) and stored on ice until use.
# The radioligand used was [^3H]-(+)-pentazocine at 5.0 nM and the final volume was 200 μl. The incubation was initiated with the addition of 100 μl of membrane at a final tissue concentration of approximately 5 mg tissue net weight/mL and the incubation time was 150 m. at 37° C. After incubation, the membranes were collected onto pretreated glass fiber filterplate (MultiScreen-FC, Millipore), with polyethylenimine 0.1%. The filters were washed two times with 200 μl of washing buffer (50 mM Tris Cl, pH=7.4) and then 25 μl of Ecoscint H liquid scintillation cocktail were added. Microplates were allowed to set for several hours and then quantified by liquid scintillation spectrophotometry (1450 Microbeta, Wallac). Nonspecific binding was determined with 1 μM haloperidol.
# σ1-receptor, sequence (Q60492 whole entry): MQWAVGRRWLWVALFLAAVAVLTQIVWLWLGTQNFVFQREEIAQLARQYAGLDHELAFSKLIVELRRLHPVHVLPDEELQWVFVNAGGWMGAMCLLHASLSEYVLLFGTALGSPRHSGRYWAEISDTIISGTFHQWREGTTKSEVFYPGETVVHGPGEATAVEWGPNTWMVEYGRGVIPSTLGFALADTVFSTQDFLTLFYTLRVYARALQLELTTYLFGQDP
row,Ki,Structure (SMILES)
1,0.26 µM,"CN1CCN(Cc2cn3nc(-c4ccccc4)sc3n2)CC1 [Compound 11, 6-((4-methylpiperazin-1-yl)methyl)-2-phenylimidazo[2,1-b][1,3,4]thiadiazole maleate]"
2,0.21 µM,"CN1CCN(Cc2cn3cc(-c4ccc(F)cc4)sc3n2)CC1 [Compound 13, 2-(4-fluorophenyl)-6-((4-methylpiperazin-1-yl)methyl)imidazo[2,1-b]thiazole maleate]"
3,0.1 µM,"c1ccc(-c2cn3cc(CN4CCCCCC4)sc3n2)cc1 [Compound 12, 2-(azepan-1-ylmethyl)-6-phenylimidazo[2,1-b]thiazole maleate]"

# More lines, now with the values behind:
row,Structure (SMILES),Ki
1,"CN1CCN(Cc2cn3cc(-c4ccccc4)sc3n2)CC1 [Compound 7, 6-((4-methylpiperazin-1-yl)methyl)-2-phenylimidazo[2,1-b]thiazole maleate]",0.056 µM
2,"c1ccc(-c2cn3cc(CN4CCCCCC4)nc3s2)cc1 [Compound 6, 6-(azepan-1-ylmethyl)-2-phenylimidazo[2,1-b]thiazole maleate]",0.016 µM
3,"c1ccc(-c2cn3cc(COCCN4CCCCCC4)nc3s2)cc1 [Compound 9, 6-((2-(azepan-1-yl)ethoxy)methyl)-2-phenylimidazo[2,1-b]thiazole maleate]",0.04 µM
4,"c1ccc(-c2cn3cc(COCCN4CCCC4)nc3s2)cc1 [Compound 10, 2-phenyl-6-((2-(pyrrolidin-1-yl)ethoxy)methyl)imidazo[2,1-b]thiazole maleate]",0.19 µM
5,"c1ccc(-c2nn3cc(COCCN4CCCCCC4)nc3s2)cc1 [Compound 4, 6-((2-(azepan-1-yl)ethoxy)methyl)-2-phenylimidazo[2,1-b][1,3,4]thiadiazole maleate]",0.168 µM
